Where “and” joins values, the source holds several entries; their conditions need not be identical. Identical values can stand only once. Toxic doses and inconclusive results are not listed.
Test system: P388 leukemia ip, CD2F1 mice, survival T/C
Experiment: NCI In Vivo Anticancer Drug Screen. Data for tumor model P388 Leukemia (intraperitoneal) in CD2F1 (CDF1) mice
Settings: endpoint: median survival time, higher = longer survival
Outline: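 Mice carrying the transplanted tumor received test compound or vehicle. Survival was recorded in each group, and the value is the treated-group measurement divided by that of the vehicle-treated control group.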

[1] = dose: 25.0 mg/kg/injection, schedule: Q01DX005 (ip), vehicle: Klucel (hydroxypropylcellulose) (HPC)
[2] = dose: 50.0 mg/kg/injection, schedule: Q01DX005 (ip), vehicle: Klucel (hydroxypropylcellulose) (HPC)
[3] = dose: 25.0 mg/kg/injection, schedule: Q01DX009 (ip), vehicle: saline with Tween-80
[4] = dose: 50.0 mg/kg/injection, schedule: Q01DX009 (ip), vehicle: saline with Tween-80
[5] = dose: 50.0 mg/kg/injection, schedule: Q04DX003 (ip), vehicle: saline with Tween-80
[6] = dose: 100.0 mg/kg/injection, schedule: Q01DX009 (ip), vehicle: saline with Tween-80
[7] = dose: 100.0 mg/kg/injection, schedule: Q04DX003 (ip), vehicle: saline with Tween-80
[8] = dose: 100.0 mg/kg/injection, schedule: Q01DX005 (ip), vehicle: saline with Tween-80
[9] = dose: 200.0 mg/kg/injection, schedule: Q01DX005 (ip), vehicle: saline with Tween-80
[10] = dose: 50.0 mg/kg/injection, schedule: Q01DX009 (ip), vehicle: saline
[11] = dose: 100.0 mg/kg/injection, schedule: Q01DX009 (ip), vehicle: saline
[12] = dose: 200.0 mg/kg/injection, schedule: Q01DX009 (ip), vehicle: saline

## NC(N)=NN=c1/c(=N\N=C(N)N)c2ccccc2/c1=N/N=C(N)N
dose: 25.0 mg/kg/injection, schedule: Q01DX001 (ip), vehicle: saline
  T/C: 99 % of control

## Cc1cccc(C)c1NC(=S)NC(=O)c1cccc(Cl)c1
[1]
  T/C: 94 % of control
[2]
  T/C: 92 % of control
dose: 100.0 mg/kg/injection, schedule: Q01DX005 (ip), vehicle: Klucel (hydroxypropylcellulose) (HPC)
  T/C: 97 % of control

## Cc1cccc(O)c1C(=O)OC(C)c1cccc2nc3c(C(=O)O)cccc3nc12 (stereo unspecified)
dose: 0.5 mg/kg/injection, schedule: Q01DX005 (ip), vehicle: DMSO
  T/C: 108 % of control
dose: 1.0 mg/kg/injection, schedule: Q01DX005 (ip), vehicle: DMSO
  T/C: 92 % of control
dose: 2.0 mg/kg/injection, schedule: Q01DX005 (ip), vehicle: DMSO
  T/C: 100 % of control
dose: 4.0 mg/kg/injection, schedule: Q01DX005 (ip), vehicle: Klucel (hydroxypropylcellulose) (HPC)
  T/C: 100 % of control
dose: 6.25 mg/kg/injection, schedule: Q01DX005 (ip), vehicle: DMSO
  T/C: 119 % of control
dose: 8.0 mg/kg/injection, schedule: Q01DX005 (ip), vehicle: Klucel (hydroxypropylcellulose) (HPC)
  T/C: 101 % of control
dose: 12.5 mg/kg/injection, schedule: Q01DX005 (ip), vehicle: DMSO
  T/C: 114 % of control
dose: 16.0 mg/kg/injection, schedule: Q01DX005 (ip), vehicle: Klucel (hydroxypropylcellulose) (HPC)
  T/C: 101 % of control
dose: 32.0 mg/kg/injection, schedule: Q01DX005 (ip), vehicle: Klucel (hydroxypropylcellulose) (HPC)
  T/C: 87 % of control

## O=C1CN(/N=C\c2ccc([N+](=O)[O-])o2)C(=O)N1
[3]
  T/C: 100 % of control
dose: 25.0 mg/kg/injection, schedule: Q04DX003 (ip), vehicle: saline with Tween-80
  T/C: 110 % of control
[4]
  T/C: 100 % of control
[5]
  T/C: 110 % of control
[6]
  T/C: 109 % of control
[7]
  T/C: 105 % of control

## C=C1C2CCC3C(CCC4C35CCC[C@]4(C)CN3CCO[C@H]35)(C2)[C@@H]1O (stereo partly specified)
dose: 4.0 mg/kg/injection, schedule: Q01DX009 (ip), vehicle: Klucel (hydroxypropylcellulose) (HPC)
  T/C: 108 % of control
dose: 8.0 mg/kg/injection, schedule: Q01DX009 (ip), vehicle: Klucel (hydroxypropylcellulose) (HPC)
  T/C: 110 % of control
dose: 16.0 mg/kg/injection, schedule: Q01DX009 (ip), vehicle: Klucel (hydroxypropylcellulose) (HPC)
  T/C: 94 % of control
dose: 32.0 mg/kg/injection, schedule: Q01DX009 (ip), vehicle: Klucel (hydroxypropylcellulose) (HPC)
  T/C: 99 % of control

## O=C(CC(=O)c1ccc(Cl)cc1)c1ccc(Cl)cc1
[5]
  T/C: 100 % of control
[7]
  T/C: 100 % of control
dose: 200.0 mg/kg/injection, schedule: Q04DX003 (ip), vehicle: saline with Tween-80
  T/C: 98 % of control
dose: 400.0 mg/kg/injection, schedule: Q04DX003 (ip), vehicle: saline with Tween-80
  T/C: 93 % of control

## CC1(C)OC(=O)N=C1c1cccc(Cl)c1
dose: 60.0 mg/kg/injection, schedule: Q01DX005 (ip), vehicle: Klucel (hydroxypropylcellulose) (HPC)
  T/C: 102 % of control
dose: 120.0 mg/kg/injection, schedule: Q01DX005 (ip), vehicle: Klucel (hydroxypropylcellulose) (HPC)
  T/C: 101 % of control
dose: 240.0 mg/kg/injection, schedule: Q01DX005 (ip), vehicle: Klucel (hydroxypropylcellulose) (HPC)
  T/C: 117 % of control

## O=c1c2ccccc2nc(-c2ccccc2Cl)n1/N=C/c1ccc(Cl)cc1Cl
dose: 50.0 mg/kg/injection, schedule: Q01DX005 (ip), vehicle: saline with Tween-80
  T/C: 93 % of control
[8]
  T/C: 103 % of control
[9]
  T/C: 102 % of control

## O=C1CS(=O)(=O)C(c2cccs2)N1CCN1C(=O)CS(=O)(=O)C1c1cccs1 (stereo unspecified)
dose: 100.0 mg/kg/injection, schedule: Q04DX002 (ip), vehicle: saline with Tween-80
  T/C: 97 % of control and 94 % of control
dose: 200.0 mg/kg/injection, schedule: Q04DX002 (ip), vehicle: saline with Tween-80
  T/C: 94 % of control and 93 % of control
dose: 400.0 mg/kg/injection, schedule: Q04DX002 (ip), vehicle: saline with Tween-80
  T/C: 92 % of control and 90 % of control

## CCOC(=O)C(C)c1nnc(-c2ccc(OC)cc2)[nH]c1=O (stereo unspecified)
dose: 50.0 mg/kg/injection, schedule: Q01DX009 (ip), vehicle: Klucel (hydroxypropylcellulose) (HPC)
  T/C: 94 % of control
dose: 100.0 mg/kg/injection, schedule: Q01DX009 (ip), vehicle: Klucel (hydroxypropylcellulose) (HPC)
  T/C: 97 % of control
dose: 200.0 mg/kg/injection, schedule: Q01DX009 (ip), vehicle: Klucel (hydroxypropylcellulose) (HPC)
  T/C: 99 % of control

## O=C(O)CC(=O)O.[NH-]CC[NH-].[Pt+2]
dose: 6.25 mg/kg/injection, schedule: Q04DX002 (ip), vehicle: saline with Tween-80
  T/C: 111 % of control
dose: 25.0 mg/kg/injection, schedule: Q01DX009 (ip), vehicle: saline
  T/C: 211 % of control
dose: 25.0 mg/kg/injection, schedule: Q04DX002 (ip), vehicle: saline with Tween-80
  T/C: 158 % of control
[10]
  T/C: 94 % of control

## CC1=CC(OC2CCCCO2)CC(C)(C)C1 (stereo unspecified)
[10]
  T/C: 100 % of control
[11]
  T/C: 99 % of control
[12]
  T/C: 101 % of control

## CC1(C)CCC2(C(=O)OC3OC(CO)C(O)C(O)C3O)CCC3(C)C(=CCC4C5(C)CCC(OC6OC(CO)C(O)C(OC7OC(CO)C(O)C(O)C7O)C6O)C(C)(C)C5CCC43C)C2C1 (stereo unspecified)
dose: 6.25 mg/kg/injection, schedule: Q01DX005 (ip), vehicle: Klucel (hydroxypropylcellulose) (HPC)
  T/C: 102 % of control
dose: 12.5 mg/kg/injection, schedule: Q01DX005 (ip), vehicle: Klucel (hydroxypropylcellulose) (HPC)
  T/C: 98 % of control
[1]
  T/C: 116 % of control
[2]
  T/C: 105 % of control

## CSCCC(N)C(=O)O (stereo unspecified)
dose: 25.0 mg/kg/injection, schedule: Q01DX005 (ip), vehicle: saline
  T/C: 102 % of control
dose: 25.0 mg/kg/injection, schedule: Q01DX009 (ip), vehicle: other
  T/C: 107 % of control
[3]
  T/C: 103 % of control
dose: 37.5 mg/kg/injection, schedule: Q01DX009 (ip), vehicle: Klucel (hydroxypropylcellulose) (HPC)
  T/C: 122 % of control
dose: 40.0 mg/kg/injection, schedule: Q01DX009 (ip), vehicle: saline with Tween-80
  T/C: 105 % of control
dose: 50.0 mg/kg/injection, schedule: Q01DX005 (ip), vehicle: saline
  T/C: 99 % of control
dose: 50.0 mg/kg/injection, schedule: Q01DX009 (ip), vehicle: other
  T/C: 100 % of control and 107 % of control
[4]
  T/C: 107 % of control
dose: 75.0 mg/kg/injection, schedule: Q01DX009 (ip), vehicle: Klucel (hydroxypropylcellulose) (HPC)
  T/C: 103 % of control
dose: 75.0 mg/kg/injection, schedule: Q01DX009 (ip), vehicle: other
  T/C: 98 % of control and 94 % of control
dose: 80.0 mg/kg/injection, schedule: Q01DX009 (ip), vehicle: saline with Tween-80
  T/C: 100 % of control and 114 % of control
dose: 100.0 mg/kg/injection, schedule: Q01DX005 (ip), vehicle: saline
  T/C: 107 % of control
dose: 100.0 mg/kg/injection, schedule: Q01DX009 (ip), vehicle: other
  T/C: 100 % of control and 107 % of control
[6]
  T/C: 108 % of control
[11]
  T/C: 102 % of control
dose: 150.0 mg/kg/injection, schedule: Q01DX009 (ip), vehicle: other
  T/C: 103 % of control and 106 % of control
dose: 160.0 mg/kg/injection, schedule: Q01DX009 (ip), vehicle: saline with Tween-80
  T/C: 99 % of control and 102 % of control
dose: 200.0 mg/kg/injection, schedule: Q01DX005 (ip), vehicle: saline
  T/C: 101 % of control
dose: 200.0 mg/kg/injection, schedule: Q01DX009 (ip), vehicle: other
  T/C: 110 % of control
[12]
  T/C: 112 % of control
dose: 225.0 mg/kg/injection, schedule: Q01DX009 (ip), vehicle: other
  T/C: 109 % of control
dose: 320.0 mg/kg/injection, schedule: Q01DX009 (ip), vehicle: saline with Tween-80
  T/C: 106 % of control and 97 % of control
dose: 400.0 mg/kg/injection, schedule: Q01DX005 (ip), vehicle: saline
  T/C: 103 % of control
dose: 400.0 mg/kg/injection, schedule: Q01DX009 (ip), vehicle: saline
  T/C: 108 % of control
dose: 800.0 mg/kg/injection, schedule: Q01DX009 (ip), vehicle: saline
  T/C: 108 % of control

## O=c1nc(Cl)c2ccccc2c2ccccc12
dose: 100.0 mg/kg/injection, schedule: Q01DX001 (ip), vehicle: saline with Tween-80
  T/C: 96 % of control
[8]
  T/C: 96 % of control
dose: 200.0 mg/kg/injection, schedule: Q01DX001 (ip), vehicle: saline with Tween-80
  T/C: 97 % of control
[9]
  T/C: 97 % of control
dose: 400.0 mg/kg/injection, schedule: Q01DX001 (ip), vehicle: saline with Tween-80
  T/C: 87 % of control
dose: 400.0 mg/kg/injection, schedule: Q01DX005 (ip), vehicle: saline with Tween-80
  T/C: 87 % of control

— PubChem BioAssay AID330 (DTP/NCI, 2004)
